Test results as given in PubChem BioAssay (NCI).
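Values below derive from 48-hour exposures of cells grown in 96-well plates, with endpoints linearly interpolated between the two concentrations bracketing the appropriate inhibition level. TGI: total growth inhibition.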

Experiments:
Assay in all cases: growth of human tumour cells (NCI), 48 h
TK-10 renal = test system: TK-10 renal
SK-MEL-28 melanoma = test system: SK-MEL-28 melanoma
HCT-116 colon = test system: HCT-116 colon
OVCAR-4 ovarian = test system: OVCAR-4 ovarian
MCF7 breast = test system: MCF7 breast
HT29 colon = test system: HT29 colon
NCI-H522 lung = test system: NCI-H522 lung
BT-549 breast = test system: BT-549 breast
SF-539 CNS = test system: SF-539 CNS
UACC-62 melanoma = test system: UACC-62 melanoma
EKVX NSCLC = test system: EKVX NSCLC
NCI-H23 lung = test system: NCI-H23 lung
SF-268 CNS = test system: SF-268 CNS
PC-3 prostate = test system: PC-3 prostate
SN12C renal = test system: SN12C renal
MDA-MB-231 breast = test system: MDA-MB-231 breast
A498 renal = test system: A498 renal
HOP-92 NSCLC = test system: HOP-92 NSCLC

CC(C)/C(=N\[N+](C)(C)C)c1ccccc1
TGI (TK-10 renal): > 100 µM | TGI (SK-MEL-28 melanoma): > 100 µM | TGI (HCT-116 colon): > 100 µM | TGI (OVCAR-4 ovarian): > 100 µM | TGI (MCF7 breast): > 100 µM | TGI (HT29 colon): > 100 µM | TGI (NCI-H522 lung): > 100 µM | TGI (BT-549 breast): > 100 µM | TGI (SF-539 CNS): > 100 µM | TGI (UACC-62 melanoma): > 100 µM | TGI (EKVX NSCLC): > 100 µM | TGI (NCI-H23 lung): > 100 µM | TGI (SF-268 CNS): > 100 µM | TGI (PC-3 prostate): > 100 µM | TGI (SN12C renal): > 100 µM | TGI (MDA-MB-231 breast): > 100 µM | TGI (A498 renal): > 100 µM | TGI (HOP-92 NSCLC): > 100 µM

CC(C)(C)C1=CC(=C2C=Cc3ccccc3O2)C=C(C(C)(C)C)C1=O
TGI (TK-10 renal): 16.5 µM | TGI (SK-MEL-28 melanoma): 22.2 µM | TGI (HCT-116 colon): 11.4 µM | TGI (OVCAR-4 ovarian): 16.8 µM | TGI (MCF7 breast): 13.1 µM | TGI (HT29 colon): 17.3 µM | TGI (NCI-H522 lung): 17.8 µM | TGI (BT-549 breast): 22.1 µM | TGI (SF-539 CNS): 20 µM | TGI (UACC-62 melanoma): 8.04 µM | TGI (EKVX NSCLC): 43.6 µM | TGI (NCI-H23 lung): 30.8 µM | TGI (SF-268 CNS): > 34.3 µM | TGI (PC-3 prostate): 16.2 µM | TGI (SN12C renal): 15.3 µM | TGI (MDA-MB-231 breast): 11.1 µM | TGI (A498 renal): 16.4 µM | TGI (HOP-92 NSCLC): > 51 µM

CSCCCNC(=O)c1csc(-c2csc(CCNC(=O)CNC(=O)CNC(=O)OC(C)(C)C)n2)n1
TGI (TK-10 renal): > 100 µM | TGI (SK-MEL-28 melanoma): > 100 µM | TGI (HCT-116 colon): > 100 µM | TGI (OVCAR-4 ovarian): > 100 µM | TGI (MCF7 breast): > 100 µM | TGI (HT29 colon): > 100 µM | TGI (NCI-H522 lung): > 100 µM | TGI (BT-549 breast): > 100 µM | TGI (SF-539 CNS): > 100 µM | TGI (UACC-62 melanoma): > 100 µM | TGI (EKVX NSCLC): > 100 µM | TGI (NCI-H23 lung): > 100 µM | TGI (SF-268 CNS): > 100 µM | TGI (PC-3 prostate): > 100 µM | TGI (SN12C renal): > 100 µM | TGI (MDA-MB-231 breast): > 100 µM | TGI (A498 renal): > 100 µM | TGI (HOP-92 NSCLC): > 100 µM

CC(C)(C)OC(=O)CN1CCN(CC(=O)N2CCN(C(=O)OCc3ccccc3)CC2)CCN(CC(=O)OC(C)(C)C)CCN(CC(=O)N2CCN(C(=O)OCc3ccccc3)CC2)CC1
TGI (TK-10 renal): 15.9 µM | TGI (SK-MEL-28 melanoma): 16.2 µM | TGI (HCT-116 colon): > 38 µM | TGI (OVCAR-4 ovarian): 16.2 µM | TGI (MCF7 breast): 14.9 µM | TGI (HT29 colon): 1.37 µM | TGI (NCI-H522 lung): 2.87 µM | TGI (BT-549 breast): 14.5 µM | TGI (SF-539 CNS): 6.85 µM | TGI (UACC-62 melanoma): 7.59 µM | TGI (EKVX NSCLC): 34.3 µM | TGI (NCI-H23 lung): 12.5 µM | TGI (SF-268 CNS): 7.34 µM | TGI (PC-3 prostate): 12.5 µM | TGI (SN12C renal): 16.3 µM | TGI (MDA-MB-231 breast): 5.01 µM | TGI (A498 renal): 35.7 µM | TGI (HOP-92 NSCLC): 11.4 µM

CC(C)(C)OC(=O)Cn1ncn(NC(=O)Cc2ccccc2)c1=O
TGI (TK-10 renal): > 10 µM | TGI (SK-MEL-28 melanoma): > 10 µM | TGI (HCT-116 colon): > 10 µM | TGI (OVCAR-4 ovarian): > 10 µM | TGI (MCF7 breast): > 10 µM | TGI (HT29 colon): > 10 µM | TGI (NCI-H522 lung): > 10 µM | TGI (BT-549 breast): > 10 µM | TGI (SF-539 CNS): > 10 µM | TGI (UACC-62 melanoma): > 10 µM | TGI (EKVX NSCLC): > 10 µM | TGI (NCI-H23 lung): > 10 µM | TGI (SF-268 CNS): > 10 µM | TGI (PC-3 prostate): > 10 µM | TGI (SN12C renal): > 10 µM | TGI (MDA-MB-231 breast): > 10 µM | TGI (A498 renal): > 10 µM | TGI (HOP-92 NSCLC): > 10 µM

COc1cc(NC=C2C(=O)OC(C)(C)OC2=O)c(OC)c(C)c1OC
TGI (TK-10 renal): > 100 µM | TGI (SK-MEL-28 melanoma): > 100 µM | TGI (HCT-116 colon): > 100 µM | TGI (OVCAR-4 ovarian): > 100 µM | TGI (MCF7 breast): > 100 µM | TGI (HT29 colon): > 100 µM | TGI (NCI-H522 lung): > 100 µM | TGI (BT-549 breast): > 100 µM | TGI (SF-539 CNS): > 100 µM | TGI (UACC-62 melanoma): > 100 µM | TGI (EKVX NSCLC): > 100 µM | TGI (NCI-H23 lung): > 100 µM | TGI (SF-268 CNS): > 100 µM | TGI (PC-3 prostate): > 100 µM | TGI (SN12C renal): > 100 µM | TGI (MDA-MB-231 breast): > 100 µM | TGI (A498 renal): > 100 µM | TGI (HOP-92 NSCLC): > 100 µM

COc1cccc2cc(C(C)=O)c(=O)oc12
TGI (TK-10 renal): > 100 µM | TGI (SK-MEL-28 melanoma): > 100 µM | TGI (HCT-116 colon): > 100 µM | TGI (OVCAR-4 ovarian): > 100 µM | TGI (MCF7 breast): > 100 µM | TGI (HT29 colon): > 100 µM | TGI (NCI-H522 lung): > 100 µM | TGI (BT-549 breast): > 100 µM | TGI (SF-539 CNS): > 100 µM | TGI (UACC-62 melanoma): > 100 µM | TGI (EKVX NSCLC): > 100 µM | TGI (NCI-H23 lung): > 100 µM | TGI (SF-268 CNS): > 100 µM | TGI (PC-3 prostate): > 100 µM | TGI (SN12C renal): > 100 µM | TGI (MDA-MB-231 breast): > 100 µM | TGI (A498 renal): > 100 µM | TGI (HOP-92 NSCLC): > 100 µM

CCN(CC)CCCNc1[nH]ncc2c(C)c3nc4ccc(OC)cc4c3cc12
TGI (TK-10 renal): 9.16 µM | TGI (SK-MEL-28 melanoma): 2.01 µM | TGI (HCT-116 colon): 1.41 µM | TGI (OVCAR-4 ovarian): 2.75 µM | TGI (MCF7 breast): 1.28 µM | TGI (HT29 colon): 6.04 µM | TGI (NCI-H522 lung): 0.639 µM | TGI (BT-549 breast): 3.19 µM | TGI (SF-539 CNS): 1.16 µM | TGI (UACC-62 melanoma): 2.74 µM | TGI (EKVX NSCLC): 10.9 µM | TGI (NCI-H23 lung): 1.97 µM | TGI (SF-268 CNS): 3.52 µM | TGI (PC-3 prostate): 1.73 µM | TGI (SN12C renal): 1.77 µM | TGI (MDA-MB-231 breast): 2.65 µM | TGI (A498 renal): 6.35 µM | TGI (HOP-92 NSCLC): 3.14 µM

C=CCN(c1cc(OC)c2[nH]c(C(=O)OCC)c(C)c2c1[N+](=O)[O-])S(C)(=O)=O
TGI (TK-10 renal): > 100 µM | TGI (SK-MEL-28 melanoma): > 100 µM | TGI (HCT-116 colon): 58.3 µM | TGI (OVCAR-4 ovarian): > 100 µM | TGI (MCF7 breast): 52.2 µM | TGI (HT29 colon): 35.5 µM | TGI (NCI-H522 lung): 43.9 µM | TGI (BT-549 breast): 60.5 µM | TGI (SF-539 CNS): > 100 µM | TGI (UACC-62 melanoma): 61.7 µM | TGI (EKVX NSCLC): 46.2 µM | TGI (NCI-H23 lung): > 100 µM | TGI (SF-268 CNS): > 100 µM | TGI (PC-3 prostate): 38.1 µM | TGI (SN12C renal): 56.1 µM | TGI (MDA-MB-231 breast): 33.7 µM | TGI (A498 renal): 65.6 µM | TGI (HOP-92 NSCLC): 72.4 µM

O=S(=O)(/N=C(\NO)Nc1ccc(Cl)cc1)c1ccccc1
TGI (TK-10 renal): > 61.6 µM | TGI (SK-MEL-28 melanoma): 33.9 µM | TGI (HCT-116 colon): 24.3 µM | TGI (OVCAR-4 ovarian): > 61.2 µM | TGI (MCF7 breast): > 100 µM | TGI (HT29 colon): 41.3 µM | TGI (NCI-H522 lung): 5.38 µM | TGI (BT-549 breast): 33.7 µM | TGI (SF-539 CNS): > 30.6 µM | TGI (UACC-62 melanoma): 36.9 µM | TGI (EKVX NSCLC): 26.1 µM | TGI (NCI-H23 lung): > 100 µM | TGI (SF-268 CNS): > 70.3 µM | TGI (PC-3 prostate): 37.3 µM | TGI (SN12C renal): 35.2 µM | TGI (MDA-MB-231 breast): > 100 µM | TGI (A498 renal): 27.3 µM | TGI (HOP-92 NSCLC): 22.4 µM

Nc1c2c(nc3ccccc13)-c1ccccc1NCCC2
TGI (TK-10 renal): 49.6 µM | TGI (SK-MEL-28 melanoma): 51.1 µM | TGI (HCT-116 colon): 94.3 µM | TGI (OVCAR-4 ovarian): > 100 µM | TGI (MCF7 breast): > 100 µM | TGI (HT29 colon): 83.9 µM | TGI (NCI-H522 lung): 82.6 µM | TGI (BT-549 breast): > 100 µM | TGI (SF-539 CNS): 43.9 µM | TGI (UACC-62 melanoma): 41.2 µM | TGI (EKVX NSCLC): > 100 µM | TGI (NCI-H23 lung): > 100 µM | TGI (SF-268 CNS): > 100 µM | TGI (PC-3 prostate): > 100 µM | TGI (SN12C renal): > 100 µM | TGI (MDA-MB-231 breast): 53.5 µM | TGI (A498 renal): 55.5 µM | TGI (HOP-92 NSCLC): 65.6 µM
